Laboratory results taken from patent US9403832B2, “Pyrazolo[1,5-a]pyrimidine-based compounds, compositions comprising them, and methods of their use” (Lexicon Pharmaceuticals, Inc., priority 2012, dated 2016).

Target: T1, AAK1 (Homo sapiens, UniProt Q2M2I8)
T1 construct: NP_055726.2
Assay: P81 filter plate assay
Format: biochemical
Details: full-length human AAK1, Mu2 substrate, 33P-ATP
Protocol: Compounds were serially diluted into a Labcyte LDV plate (Labcyte, cat#LP-0200) using a Mutiprobe (PerkinElmer) and Biomek FX (Beckman Coulter) so that the highest compound concentration was at 96 μM. Compounds were then pinged (75 nL per well) into a Greiner 384-well reaction plate (Greiner, #781076) using an ECHO 550 Liquid Handler (Labcyte). A total of 12 μl reaction buffer (IMAP buffer containing Tween and DTT, from Molecular Devices) was then added to each well of columns 1 and 13 for the negative controls and 12 μl of 2× AAK1 (0.2 nM full-length human protein, NCBI accession no. NP_055726.2) was added to the remaining wells. Enzyme was then pre-incubated with compound for 10 minutes at RT. Reactions were initiated upon Minitrak (PerkinElmer) addition of 12 μl substrate mix containing 2× Mu2 (0.2 μM, full length human protein), 2× cold ATP (2 μM), and 1.3 μCi of hot ^33P-ATP. […] proceeded for one hour at RT. Meanwhile, Millipore 384-well P81 filter plates (Millipore, catalog #MZPHNOW10) were placed on a plate washer (Zoom ZW, from Titertek) and pre-wet with 50 μl 1% phosphoric acid. Kinase reactions were then stopped upon addition of 24 μl of 2% phosphoric acid to each well and the Minitrak was then used to transfer 40 μl from each well into the pre-wet Millipore 384-well P81 filter plates. Reaction mixtures were incubated for 10 minutes at RT in the P81 plates, followed by washing five times with 100 μl/well of 1% phosphoric acid using the Zoom filter washer. The bottom of each filter plate was sealed followed by addition of 20 μl Microscint 40 to each well, sealing the top of the plates with Flashplate cover, and then waiting one hour until reading on the TopCount (PerkinElmer).

T1 sequence (Q2M2I8 1-863 isoform Q2M2I8-2): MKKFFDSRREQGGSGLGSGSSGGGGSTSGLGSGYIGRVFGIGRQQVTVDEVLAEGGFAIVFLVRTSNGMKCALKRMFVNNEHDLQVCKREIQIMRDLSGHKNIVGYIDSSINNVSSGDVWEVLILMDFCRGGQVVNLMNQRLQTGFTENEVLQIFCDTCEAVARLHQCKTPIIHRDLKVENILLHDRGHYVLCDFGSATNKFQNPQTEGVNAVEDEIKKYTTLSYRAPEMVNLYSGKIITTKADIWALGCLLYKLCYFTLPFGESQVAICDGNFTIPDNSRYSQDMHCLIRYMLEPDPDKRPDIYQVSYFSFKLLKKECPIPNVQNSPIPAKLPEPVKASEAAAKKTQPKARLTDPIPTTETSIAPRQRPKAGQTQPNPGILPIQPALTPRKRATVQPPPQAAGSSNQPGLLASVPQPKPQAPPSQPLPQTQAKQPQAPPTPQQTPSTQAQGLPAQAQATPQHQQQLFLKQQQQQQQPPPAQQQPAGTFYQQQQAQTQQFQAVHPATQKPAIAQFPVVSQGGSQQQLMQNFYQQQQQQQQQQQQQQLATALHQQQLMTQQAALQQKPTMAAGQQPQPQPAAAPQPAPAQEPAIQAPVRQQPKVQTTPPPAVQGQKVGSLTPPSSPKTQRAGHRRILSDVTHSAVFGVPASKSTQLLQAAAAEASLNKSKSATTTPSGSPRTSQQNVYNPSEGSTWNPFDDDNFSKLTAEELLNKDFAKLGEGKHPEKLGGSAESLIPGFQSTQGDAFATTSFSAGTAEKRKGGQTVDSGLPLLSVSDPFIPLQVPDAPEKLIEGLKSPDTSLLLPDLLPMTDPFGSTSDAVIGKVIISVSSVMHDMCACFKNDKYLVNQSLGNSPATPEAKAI

SMILES | IC50 [nM]
CC(C)C[C@H](N)C(=O)N1CCN(c2ccn3ncc(Cl)c3n2)CC1 [(S)-2-amino-1-(4-(3-chloropyrazolo[1,5-a]pyrimidin-5-yl)piperazin-1-yl)-4-methylpentan-1-one] | ≤ 100
CC(C)C[C@H](N)C(=O)N1CCN(c2ccn3ncc(F)c3n2)CC1 [(S)-2-amino-1-(4-(3-fluoropyrazolo[1,5-a]pyrimidin-5-yl)piperazin-1-yl)-4-methylpentan-1-one] | ≤ 1000
COc1ncccc1-c1cnn2ccc(N(C)CCN(C)C(=O)[C@@H](N)CC(C)C)nc12 [(S)-2-amino-N-(2-((3-(2-methoxypyridin-3-yl)pyrazolo[1,5-a]pyrimidin-5-yl)(methyl)amino)ethyl)-N,4-dimethylpentanamide] | ≤ 10
COc1ncccc1-c1cnn2ccc(N3CCN(C(=O)[C@@H]4COCCN4)CC3)nc12 [(S)-(4-(3-(2-methoxypyridin-3-yl)pyrazolo[1,5-a]pyrimidin-5-yl)piperazin-1-yl)(morpholin-3-yl)methanone] | ≤ 10
COc1ccccc1-c1cnn2ccc(NC[C@@H]3CCCN3C(=O)NC(C)(C)C)nc12 [(S)-N-(tert-butyl)-2-(((3-(2-methoxyphenyl)pyrazolo[1,5-a]pyrimidin-5-yl)amino)methyl)pyrrolidine-1-carboxamide] | ≤ 10
CC(C)OC(=O)N1CCC[C@H]1CN(C)c1ccn2nccc2n1 [(S)-isopropyl 2-((methyl(pyrazolo[1,5-a]pyrimidin-5-yl)amino)methyl)pyrrolidine-1-carboxylate] | ≤ 1000
Cc1ccc(-c2cnn3ccc(N4CC[C@H](N(C)C(=O)OC(C)C)C4)nc23)c(=O)n1C [(S)-isopropyl (1-(3-(1,6-dimethyl-2-oxo-1,2-dihydropyridin-3-yl)pyrazolo[1,5-a]pyrimidin-5-yl)pyrrolidin-3-yl)(methyl)carbamate] | ≤ 1000
COc1ccc(-c2cnn3ccc(N4CC[C@H](N(C)C(=O)OC(C)C)C4)nc23)c(OC)n1 [(S)-isopropyl (1-(3-(2,6-dimethoxypyridin-3-yl)pyrazolo[1,5-a]pyrimidin-5-yl)pyrrolidin-3-yl)(methyl)carbamate] | ≤ 100
COc1ncc(C)cc1-c1cnn2ccc(N3CC[C@H](N(C)C(=O)OC(C)C)C3)nc12 [(S)-isopropyl (1-(3-(2-methoxy-5-methylpyridin-3-yl)pyrazolo[1,5-a]pyrimidin-5-yl)pyrrolidin-3-yl)(methyl)carbamate] | ≤ 10
COc1ncc(F)cc1-c1cnn2ccc(N3CC[C@H](N(C)C(=O)OC(C)C)C3)nc12 [(S)-isopropyl (1-(3-(5-fluoro-2-methoxypyridin-3-yl)pyrazolo[1,5-a]pyrimidin-5-yl)pyrrolidin-3-yl)(methyl)carbamate] | ≤ 100
CC(C)OC(=O)N(C)[C@H]1CCN(c2ccn3ncc(-c4ccccn4)c3n2)C1 [(S)-isopropyl methyl(1-(3-(pyridin-2-yl)pyrazolo[1,5-a]pyrimidin-5-yl)pyrrolidin-3-yl)carbamate] | ≤ 1000
CCc1ccccc1-c1cnn2ccc(NC[C@@H]3CCCN3C(=O)OC(C)(C)C)nc12 [(S)-tert-butyl 2-(((3-(2-ethylphenyl)pyrazolo[1,5-a]pyrimidin-5-yl)amino)methyl)pyrrolidine-1-carboxylate] | ≤ 10
CC(C)(C)OC(=O)N1CCC[C@H]1CNc1ccn2ncc(-c3ccc(C(N)=O)cc3)c2n1 [(S)-tert-butyl 2-(((3-(4-carbamoylphenyl)pyrazolo[1,5-a]pyrimidin-5-yl)amino)methyl)pyrrolidine-1-carboxylate] | ≤ 10
COc1nc(C)ccc1-c1cnn2ccc(NCCOC(C)(C)C)nc12 [N-(2-(tert-butoxy)ethyl)-3-(2-methoxy-6-methylpyridin-3-yl)pyrazolo[1,5-a]pyrimidin-5-amine] | ≤ 100
COc1ncccc1-c1cnn2ccc(NCCOC(C)(C)C)nc12 [N-(2-(tert-butoxy)ethyl)-3-(2-methoxypyridin-3-yl)pyrazolo[1,5-a]pyrimidin-5-amine] | ≤ 10
COc1nc(C)ccc1-c1cnn2ccc(N(C)CCCOC(C)(C)C)nc12 [N-(3-(tert-butoxy)propyl)-3-(2-methoxy-6-methylpyridin-3-yl)-N-methylpyrazolo[1,5-a]pyrimidin-5-amine] | ≤ 100
COc1nc(C)ccc1-c1cnn2ccc(NCCCOC(C)(C)C)nc12 [N-(3-(tert-butoxy)propyl)-3-(2-methoxy-6-methylpyridin-3-yl)pyrazolo[1,5-a]pyrimidin-5-amine] | ≤ 10
COc1ncccc1-c1cnn2ccc(N(C)CCCOC(C)(C)C)nc12 [N-(3-(tert-butoxy)propyl)-3-(2-methoxypyridin-3-yl)-N-methylpyrazolo[1,5-a]pyrimidin-5-amine] | ≤ 100

The remaining lines, values ahead:

IC50 [nM] | SMILES
≤ 10 | CC(C)(C)OC(=O)N1CCC[C@H]1CNc1ccn2ncc(C(F)(F)F)c2n1 [(S)-tert-butyl 2-(((3-(trifluoromethyl)pyrazolo[1,5-a]pyrimidin-5-yl)amino)methyl)pyrrolidine-1-carboxylate]
≤ 10 | CC(C)(C)OC(=O)N1CCC[C@H]1CNc1ccn2ncc(-c3ccccc3)c2n1 [(S)-tert-butyl 2-(((3-phenylpyrazolo[1,5-a]pyrimidin-5-yl)amino)methyl)pyrrolidine-1-carboxylate]
≤ 1000 | CN(C(=O)OC(C)(C)C)[C@H]1CCN(c2ccn3ncc(-c4ccccn4)c3n2)C1 [(S)-tert-butyl methyl(1-(3-(pyridin-2-yl)pyrazolo[1,5-a]pyrimidin-5-yl)pyrrolidin-3-yl)carbamate]
≤ 100 | CCCC(=O)Nc1ccn2ncc(-c3cccnc3OC)c2n1 [N-(3-(2-methoxypyridin-3-yl)pyrazolo[1,5-a]pyrimidin-5-yl)butyramide]
≤ 10 | CCOC(=O)N1CCN(c2ccn3ncc(-c4ccc(OC)nc4OC)c3n2)CC1 [ethyl 4-(3-(2,6-dimethoxypyridin-3-yl)pyrazolo[1,5-a]pyrimidin-5-yl)piperazine-1-carboxylate]
≤ 10 | CCOC(=O)N1CCN(c2ccn3ncc(-c4cc(F)ccc4OC)c3n2)CC1 [ethyl 4-(3-(5-fluoro-2-methoxyphenyl)pyrazolo[1,5-a]pyrimidin-5-yl)piperazine-1-carboxylate]
≤ 1000 | COc1ncccc1-c1cnn2ccc(N3CCN(C(=O)OC(C)C)C3=O)nc12 [isopropyl 3-(3-(2-methoxypyridin-3-yl)pyrazolo[1,5-a]pyrimidin-5-yl)-2-oxoimidazolidine-1-carboxylate]
≤ 10 | Cc1ccc(-c2cnn3ccc(N4CCN(C(=O)OC(C)C)CC4)nc23)c(=O)n1C [isopropyl 4-(3-(1,6-dimethyl-2-oxo-1,2-dihydropyridin-3-yl)pyrazolo[1,5-a]pyrimidin-5-yl)piperazine-1-carboxylate]
≤ 10 | CC(C)OC(=O)N1CCN(c2ccn3ncc(-c4cccn(C)c4=O)c3n2)CC1 [isopropyl 4-(3-(1-methyl-2-oxo-1,2-dihydropyridin-3-yl)pyrazolo[1,5-a]pyrimidin-5-yl)piperazine-1-carboxylate]
≤ 100 | CC(C)OC(=O)N1CCN(c2ccn3ncc(-c4cccc5[nH]cnc45)c3n2)CC1 [isopropyl 4-(3-(1H-benzo[d]imidazol-4-yl)pyrazolo[1,5-a]pyrimidin-5-yl)piperazine-1-carboxylate]
≤ 100 | CC(C)OC(=O)N1CCN(c2ccn3ncc(-c4cccnc4OCCN(C)C)c3n2)CC1 [isopropyl 4-(3-(2-(2-(dimethylamino)ethoxy)pyridin-3-yl)pyrazolo[1,5-a]pyrimidin-5-yl)piperazine-1-carboxylate]
≤ 100 | COCCOc1ccccc1-c1cnn2ccc(N3CCN(C(=O)OC(C)C)CC3)nc12 [isopropyl 4-(3-(2-(2-methoxyethoxy)phenyl)pyrazolo[1,5-a]pyrimidin-5-yl)piperazine-1-carboxylate]
≤ 100 | COCCOc1ncccc1-c1cnn2ccc(N3CCN(C(=O)OC(C)C)CC3)nc12 [isopropyl 4-(3-(2-(2-methoxyethoxy)pyridin-3-yl)pyrazolo[1,5-a]pyrimidin-5-yl)piperazine-1-carboxylate]
≤ 1000 | COCc1ccccc1-c1cnn2ccc(N3CCN(C(=O)OC(C)C)CC3)nc12 [isopropyl 4-(3-(2-(methoxymethyl)phenyl)pyrazolo[1,5-a]pyrimidin-5-yl)piperazine-1-carboxylate]
≤ 100 | CSc1ncccc1-c1cnn2ccc(N3CCN(C(=O)OC(C)C)CC3)nc12 [isopropyl 4-(3-(2-(methylthio)pyridin-3-yl)pyrazolo[1,5-a]pyrimidin-5-yl)piperazine-1-carboxylate]
≤ 100 | CC(C)OC(=O)N1CCN(c2ccn3ncc(-c4cccnc4N)c3n2)CC1 [isopropyl 4-(3-(2-aminopyridin-3-yl)pyrazolo[1,5-a]pyrimidin-5-yl)piperazine-1-carboxylate]
≤ 10 | CCOc1ncccc1-c1cnn2ccc(N3CCN(C(=O)OC(C)C)CC3)nc12 [isopropyl 4-(3-(2-ethoxypyridin-3-yl)pyrazolo[1,5-a]pyrimidin-5-yl)piperazine-1-carboxylate]
